Measurements from US9393447B2, “Liquid non-ionic salt-free skin and hair treatment composition that contains Lauroyl N-Methyl Glucamide” (Formula XO, Inc., priority 2013, dated 2016).

How the values were obtained:
[1] = Temperature at which LMG solutions solidify (gel) on cooling; assay type: physicochemical
Description: The pH was then adjusted to 4-5 with HC1. Separate solutions were also prepared with increasing final concentrations of decyl glucoside: 0.0, 0.5, 1.0, 2.0, 3.0, 4.0, 5.0, 6.0. The compositions were brought into clear, colorless single phase solutions by heating to 60° C. The solutions were then cooled in a refrigerated chamber and the temperature at which gelling occurred was noted. As the concentration of decyl glucoside increased the temperature at which the LMG solution gelled decreased, forming a non-gelling glass at decyl glucoside concentrations of 5% and above. Thus the addition of decyl glucoside at concentrations of 5% or greater to a solution of 10% LMG and 10% glycerol prevents stable gel formation, even at temperatures as low as −20° C.
Composition A was prepared as described in the above table.
At room temperature the solution was viscous in consistency. The solution solidified at 15° C. […] Such phase transitions in a commercial product are unacceptable.

In the case of CCCCCCCCCCCC(=O)N(C)CC(O)C(O)C(O)C(O)CO (stereo not drawn) [LMG, Lauroyl N-Methyl Glucamide], the “Physical state of solution” value ([1]; 0.2 wt % solution of LMG in water, 4° C.) is reported as “loose jelly-like solution”, the “Temperature at which hard gels form” value ([1]; LMG 5-15 wt % in water) is reported as “about 35 °C” and the melting point is reported as ~ 60 °C.
